# Source: PubChem BioAssay AID2060627 (Molecular Pharmacology Branch, DTP, NCI, 2025)
# System: 156681-154-R-J1-PDC complex spheroid viability
# Assay: Anticancer human tumor 156681-154-R-J1-PDC patient-derived melanoma cell line growth inhibition [CLK]
# Settings: for IC50: curve of first compound; for viability, T/C: stronger effect = lower value
# Method in brief: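 Multi-cell-type spheroids combined patient-derived tumor cells with HUVEC endothelial cells and human mesenchymal stem cells. Paired agents were dosed in half-log steps down from about clinical Cmax, or from 10 microM where Cmax was unknown.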
# 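Also: spheroids exposed to the agents for seven days.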
# 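For viability, T/C in this document: 100% = DMSO vehicle control viability.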
structure (smiles),measurement,setting,value
C=CC(=O)Nc1cc(Nc2nccc(-c3cn(C)c4ccccc34)n2)c(OC)cc1N(C)CCN(C)C + CN1CCN(c2cc(C(=O)Nc3cc4cc(-c5cnn(C)c5)ccc4cn3)ccn2)CC1,IC50,second compound 0.0316 µM,> 300 nM
same,IC50,second compound 0.1 µM,> 300 nM
same,IC50,second compound 0.316 µM,< 0.949 nM
same,IC50,second compound 1 µM,< 0.949 nM
same,IC50,second compound 3.16 µM,< 0.949 nM
same,IC50,second compound 10 µM,< 0.949 nM
same,"viability, T/C","second compound 0.0316 µM, first compound 0.000949 µM",102%
same,"viability, T/C","second compound 0.0316 µM, first compound 0.003 µM",91.7%
same,"viability, T/C","second compound 0.0316 µM, first compound 0.00949 µM",112%
same,"viability, T/C","second compound 0.0316 µM, first compound 0.03 µM",89.8%
same,"viability, T/C","second compound 0.0316 µM, first compound 0.0949 µM",94.8%
same,"viability, T/C","second compound 0.0316 µM, first compound 0.3 µM",90%
same,"viability, T/C","second compound 0.1 µM, first compound 0.000949 µM",99.7%
same,"viability, T/C","second compound 0.1 µM, first compound 0.003 µM",90.2%
same,"viability, T/C","second compound 0.1 µM, first compound 0.00949 µM",97.7%
same,"viability, T/C","second compound 0.1 µM, first compound 0.03 µM",94.7%
same,"viability, T/C","second compound 0.1 µM, first compound 0.0949 µM",77.6%
same,"viability, T/C","second compound 0.1 µM, first compound 0.3 µM",79.9%
same,"viability, T/C","second compound 0.316 µM, first compound 0.000949 µM",19.2%
same,"viability, T/C","second compound 0.316 µM, first compound 0.003 µM",26.4%
same,"viability, T/C","second compound 0.316 µM, first compound 0.00949 µM",23.4%
same,"viability, T/C","second compound 0.316 µM, first compound 0.03 µM",13.1%
same,"viability, T/C","second compound 0.316 µM, first compound 0.0949 µM",24.2%
same,"viability, T/C","second compound 0.316 µM, first compound 0.3 µM",11.1%
same,"viability, T/C","second compound 1 µM, first compound 0.000949 µM",0.2%
same,"viability, T/C","second compound 1 µM, first compound 0.003 µM",0.66%
same,"viability, T/C","second compound 1 µM, first compound 0.00949 µM",0.19%
same,"viability, T/C","second compound 1 µM, first compound 0.03 µM",0.27%
same,"viability, T/C","second compound 1 µM, first compound 0.0949 µM",0.26%
same,"viability, T/C","second compound 1 µM, first compound 0.3 µM",1.38%
same,"viability, T/C","second compound 3.16 µM, first compound 0.000949 µM",0.16%
same,"viability, T/C","second compound 3.16 µM, first compound 0.003 µM",1.53%
same,"viability, T/C","second compound 3.16 µM, first compound 0.00949 µM",0.47%
same,"viability, T/C","second compound 3.16 µM, first compound 0.03 µM",0.12%
same,"viability, T/C","second compound 3.16 µM, first compound 0.0949 µM",1.26%
same,"viability, T/C","second compound 3.16 µM, first compound 0.3 µM",0.93%
same,"viability, T/C","second compound 10 µM, first compound 0.000949 µM",1.34%
same,"viability, T/C","second compound 10 µM, first compound 0.003 µM",0.16%
same,"viability, T/C","second compound 10 µM, first compound 0.00949 µM",0.96%
same,"viability, T/C","second compound 10 µM, first compound 0.03 µM",1.65%
same,"viability, T/C","second compound 10 µM, first compound 0.0949 µM",2.39%
same,"viability, T/C","second compound 10 µM, first compound 0.3 µM",2.57%
